Data reported in ChEMBL document CHEMBL3046465, “A facile synthesis of new 3,3-disubstituted phthalides of pharmacological interest” (Med Chem Res, 2013).
Values after ≈ are worked out from the molar mass of the structure shown.

Assays:
Staphylococcus aureus [1] = assay: Antibacterial activity against methicillin-resistant Staphylococcus aureus ATCC 33591 assessed as growth inhibition after 16 to 20 hr by CLSI broth dilution method; type: functional
Staphylococcus aureus [2] = assay: Antibacterial activity against Staphylococcus aureus ATCC 29213 assessed as growth inhibition after 16 to 20 hr by CLSI broth dilution method; type: functional
Cryptococcus neoformans [3] = assay: Antifungal activity against Cryptococcus neoformans ATCC 90113 assessed as growth inhibition after 70 to 74 hr by CLSI broth dilution method; type: functional
Aspergillus fumigatus [4] = assay: Antifungal activity against Aspergillus fumigatus ATCC 204305 assessed as growth inhibition after 46 to 50 hr by CLSI broth dilution method; type: functional
Pichia kudriavzevii [5] = assay: Antifungal activity against Pichia kudriavzevii ATCC 6258 assessed as growth inhibition after 46 to 50 hr by CLSI broth dilution method; type: functional
Nakaseomyces glabratus [6] = assay: Antifungal activity against Candida glabrata ATCC 90030 assessed as growth inhibition after 46 to 50 hr by CLSI broth dilution method; type: functional
Candida albicans [7] = assay: Antifungal activity against Candida albicans ATCC 90028 assessed as growth inhibition after 46 to 50 hr by CLSI broth dilution method; type: functional
[8] = test system: Mycobacterium intracellulare; assay: Antibacterial activity against Mycobacterium intracellulare ATCC 23068 assessed as growth inhibition after 70 to 74 hr by Alamar blue assay; type: functional, organism-based
Candida albicans [9] = assay: Antifungal activity against Candida albicans ATCC 90028 assessed as growth inhibition after 46 to 50 hr by Alamar blue assay; type: functional, organism-based
[10] = test system: Mycobacterium intracellulare; assay: Antibacterial activity against Mycobacterium intracellulare ATCC 23068 assessed as growth inhibition after 70 to 74 hr by CLSI broth dilution method; type: functional
Pseudomonas aeruginosa [11] = assay: Antibacterial activity against Pseudomonas aeruginosa ATCC 27853 assessed as growth inhibition after 16 to 20 hr by CLSI broth dilution method; type: functional
Escherichia coli [12] = assay: Antibacterial activity against Escherichia coli ATCC 35218 assessed as growth inhibition after 16 to 20 hr by CLSI broth dilution method; type: functional
Staphylococcus aureus [13] = assay: Antibacterial activity against methicillin-resistant Staphylococcus aureus ATCC 33591 assessed as growth inhibition after 16 to 20 hr by Alamar blue assay; type: functional, organism-based
Staphylococcus aureus [14] = assay: Antibacterial activity against Staphylococcus aureus ATCC 29213 assessed as growth inhibition after 16 to 20 hr by Alamar blue assay; type: functional, organism-based
Cryptococcus neoformans [15] = assay: Antifungal activity against Cryptococcus neoformans ATCC 90113 assessed as growth inhibition after 70 to 74 hr by Alamar blue assay; type: functional, organism-based
Aspergillus fumigatus [16] = assay: Antifungal activity against Aspergillus fumigatus ATCC 204305 assessed as growth inhibition after 46 to 50 hr by Alamar blue assay; type: functional, organism-based
Nakaseomyces glabratus [17] = assay: Antifungal activity against Candida glabrata ATCC 90030 assessed as growth inhibition after 46 to 50 hr by optical density measurement
Pichia kudriavzevii [18] = assay: Antifungal activity against Pichia kudriavzevii ATCC 6258 assessed as growth inhibition after 46 to 50 hr by optical density measurement
Escherichia coli [19] = assay: Antibacterial activity against Escherichia coli ATCC 35218 assessed as growth inhibition after 16 to 20 hr by optical density measurement
Pseudomonas aeruginosa [20] = assay: Antibacterial activity against Pseudomonas aeruginosa ATCC 27853 assessed as growth inhibition after 16 to 20 hr by optical density measurement
Escherichia coli [21] = assay: Antibacterial activity against Escherichia coli ATCC 35218 assessed as growth inhibition after 16 to 20 hr by optical density method

| SMILES | MIC (Staphylococcus aureus [1]) [µg/mL] | MIC (Staphylococcus aureus [2]) [µg/mL] | MIC (Cryptococcus neoformans [3]) [µg/mL] | MIC (Aspergillus fumigatus [4]) [µg/mL] | MIC (Pichia kudriavzevii [5]) [µg/mL] | MIC (Nakaseomyces glabratus [6]) [µg/mL] | MIC (Candida albicans [7]) [µg/mL] | IC50 [8] [µg/mL] | IC50 (Candida albicans [9]) [µg/mL] | MIC [10] [µg/mL] | MIC (Pseudomonas aeruginosa [11]) [µg/mL] | MIC (Escherichia coli [12]) [µg/mL] | IC50 (Staphylococcus aureus [13]) [µg/mL] | IC50 (Staphylococcus aureus [14]) [µg/mL] | IC50 (Cryptococcus neoformans [15]) [µg/mL] | IC50 (Aspergillus fumigatus [16]) [µg/mL] | IC50 (Nakaseomyces glabratus [17]) [µg/mL] | IC50 (Pichia kudriavzevii [18]) [µg/mL] | IC50 (Escherichia coli [19]) [µg/mL] | IC50 (Pseudomonas aeruginosa [20]) [µg/mL] | further results |
| --- | --- | --- | --- | --- | --- | --- | --- | --- | --- | --- | --- | --- | --- | --- | --- | --- | --- | --- | --- | --- | --- |
| CC(C)c1ccc(C2(c3ccc(O)c(O)c3)OC(=O)c3ccccc32)cc1[N+](=O)[O-] (configuration not stated) | 50 (≈ 123 µM) | 50 (≈ 123 µM) | > 100 | > 100 | > 100 | > 100 | > 100 | > 200 | > 200 | > 200 | > 200 | > 200 | 27.8 (≈ 68.5 µM) | 26.4 (≈ 65 µM) | > 200 | > 200 | 76.3 (≈ 188 µM) | > 200 | > 200 | > 200 |  |
| CC(C)c1ccc(C2(c3ccc(O)c(O)c3O)OC(=O)c3ccccc32)cc1[N+](=O)[O-] (configuration not stated) | 133 (≈ 316 µM) | 100 (≈ 237 µM) | > 200 | > 200 | > 200 | 83.3 (≈ 198 µM) | > 200 | > 200 | 98.9 (≈ 235 µM) | > 200 | > 200 | > 200 | 45.7 (≈ 108 µM) | 42.3 (≈ 100 µM) | > 200 | > 200 | 21.3 (≈ 50.6 µM) | 88.7 (≈ 210 µM) | > 200 | 163 (≈ 386 µM) |  |
| O=C(O)c1cn(C2CC2)c2cc(N3CCNCC3)c(F)cc2c1=O [CIPROFLOXACIN] |  |  |  |  |  |  |  | 0.32 (≈ 0.966 µM) |  |  |  |  |  |  |  |  |  |  | 0.005 (≈ 0.0151 µM) |  |  |
| CC(C)c1ccc(C2(c3ccc(O)c(O)c3)OC(=O)c3ccccc32)cc1 (configuration not stated) | 12.5 (≈ 34.7 µM) | 18.8 (≈ 52 µM) | > 200 | > 200 | > 200 | 200 (≈ 555 µM) | > 200 | > 200 | 172 (≈ 478 µM) | > 200 | > 200 | > 200 | 6.81 (≈ 18.9 µM) | 4.96 (≈ 13.8 µM) | 137 (≈ 381 µM) | 53.2 (≈ 148 µM) | 45.8 (≈ 127 µM) | 15.5 (≈ 42.9 µM) | > 200 | 61 (≈ 169 µM) |  |
| CC(C)c1ccc(C2(c3ccc(O)c(O)c3O)OC(=O)c3ccccc32)cc1 (configuration not stated) | 25 (≈ 66.4 µM) | 25 (≈ 66.4 µM) | > 200 | > 200 | > 200 | > 200 | > 200 | > 200 | 65 (≈ 173 µM) | > 200 | > 200 | > 200 | 18.8 (≈ 49.9 µM) | 18.4 (≈ 49 µM) | > 200 | > 200 | 17.5 (≈ 46.5 µM) | 25.5 (≈ 67.7 µM) |  | 116 (≈ 309 µM) | IC50 (Escherichia coli [21]): 170 µg/mL (≈ 451 µM) |
| C[C@@H]1[C@H](O)[C@@H](C)/C=C/C=C/C=C/C=C/C=C/C=C/C=C/[C@H](O[C@@H]2O[C@H](C)[C@@H](O)[C@H](N)[C@@H]2O)C[C@@H]2O[C@](O)(C[C@@H](O)C[C@@H](O)[C@H](O)CC[C@@H](O)C[C@@H](O)CC(=O)O[C@H]1C)C[C@H](O)[C@H]2C(=O)O [AMPHOTERICIN B] |  |  | 0.63 (≈ 0.682 µM) | 1.25 (≈ 1.35 µM) | 1.25 (≈ 1.35 µM) | 0.63 (≈ 0.682 µM) | 0.52 (≈ 0.563 µM) |  | 0.2 (≈ 0.216 µM) |  |  |  |  |  | 0.32 (≈ 0.346 µM) | 0.67 (≈ 0.725 µM) | 0.28 (≈ 0.303 µM) | 0.56 (≈ 0.606 µM) |  |  |  |
